Entries after “also recorded” stand apart in the source; their conditions may differ.
Legend:
[1] = tested on: phosphorylation of eIF4B at S406; assay: Immunoblotting of eIF4B S406 phosphorylation in drug-treated mitotic cells; format: cell-based, human
Method: MDA-MB-468 cells stably expressing tetracycline-inducible (tet-on) small hairpin MELK (shMELK) in the presence or absence of doxycycline were harvested through treatment of nocodazole, and subjected to immunoblotting. […] Mitotic MDA-MB-468 cells were treated for 30 min with vehicle or 200 nM OTSSP167, a MELK inhibitor (Chung et al. (2012) Oncotarget 3:1629-1640). Lysates were used for immunoblotting.
(§1) For treatment with nocodazole, cells were refreshed with medium containing nocodazole (200 ng/ml). Twenty hours after treatment, floating mitotic cells were harvested by gental shake-off. For drug treatment, cells were seeded in multi-well plate, in the presence of OTSSP167 (ChemExpress, HY15512; 10 mM stock made in DMSO).
(§2) Cells were harvested and lysed with RIPA buffer (25 mM Tris, pH 7.4, 150 mM NaCl, 1% Nonidet P-40, 0.5% sodium deoxycholate, and 0.1% sodium dodecyl sulfate) supplemented with protease inhibitors cocktail (Roche) and phosphatase inhibitors cocktail (Thermo Scientific). Cleared lysates were analyzed for protein concentration using a BCA kit (Thermo Scientific). Equal amount of protein (10-20 μg) was resolved on SDS-PAGE, and was subsequently transferred onto a nitrocellulose or polyvinylidene difluoride membrane (Amersham). The membrane was blocked with 5% non-fat milk and was then incubated with primary antibodies overnight at 4° C. After washing, the membrane was incubated with fluorophore-conjugated secondary antibodies for 1 h at room temperature. The membrane was then washed and scanned with an Odyssey® Infrared scanner (Li-Cor Biosciences).
The following antibodies were used for immunoblotting or immunoprecipitation, MELK (Epitomics, 2916), p-eIF4B (S406) (Cell Signaling, 8151), p-eIF4B (S422) (Cell Signaling, 3591), eIF4B (Cell Signaling, 3592), c-Myc (Cell Signaling, 5605), XIAP (Cell Signaling, 2045), p-Akt (S473) (Cell Signaling, 4060), p-MAPK (T202/Y204) (Cell Signaling, 4370), cleaved PARP (Asp214) (Cell Signaling, 9541), Aurora A (Cell Signaling, 4718), Aurora B (Cell Signaling, 3094), p-Aurora A (T288)/Aurora B (T232)/Aurora C (T198) (Cell Signaling, 2914), p-Histone H3 (T3) (Cell Signaling, 13576), p-Histone H3 (S10) (Cell Signaling, 3377), p-Histone H3 (T11) (Cell Signaling, 9767), p-Histone H3 (S28) (Cell Signaling, 9713), ODC (Sigma, O1136), Vinculin (Sigma, V9131, alpha-tubulin (Sigma, T9016), anti-HA magnetic beads (Pierce, 88836), anti-Flag magnetic beads (Sigma, M8823). Secondary antibodies used were Alexa Fluor 680 goat anti-rabbit IgG (Invitrogen A-21109) and IRDye800-conjugated anti-mouse IgG (Rockland).

[2] = target: T1, recombinant MELK (kinase domain) (Homo sapiens, UniProt Q14680); assay: In vitro kinase assay, recombinant MELK (kinase domain) with recombinant Histone H3, immunoblotting; format: biochemical; details: 200 ng/ml final, 30 min at 30° C. (FIG. 12)
T1 construct: incubated without or with recombinant MELK (kinase domain) for 30 min. at 30° C
T1 sequence (Q14680 11-263 limits assumed): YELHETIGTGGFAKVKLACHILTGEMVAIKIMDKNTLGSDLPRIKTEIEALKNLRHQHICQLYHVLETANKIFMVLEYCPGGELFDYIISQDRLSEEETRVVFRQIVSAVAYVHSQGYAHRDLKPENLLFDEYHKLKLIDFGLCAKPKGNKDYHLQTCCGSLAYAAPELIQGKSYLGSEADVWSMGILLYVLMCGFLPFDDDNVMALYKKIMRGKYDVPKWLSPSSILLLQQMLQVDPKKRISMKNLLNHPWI
Method: Reactions were terminated by adding SDS sample buffer. Samples were subjected to immunoblotting using the indicated antibodies.
Flag-tagged eIF4B or Flag-eIF4B (S406A) was transfected into HEK293T cells (4 μg DNA for cells in one 60 mm dish). Thirty-six hours after transfection, cells were lysed with IP buffer (100 mM NaCl, 50 mM Tris, pH 7.5, 0.5% NP-40, 0.5% Sodium deoxycholate, supplemented with protease/phosphatase inhibitor cocktail). Lysates were cleared via incubating with anti-mouse IgG conjugated to magnetic beads (4° C., 30 min), and then immunoprecipitated with anti-Flag M2 magnetic beads (Sigma) (4° C., 120 min). The beads with bound antigens were washed 5 times with IP buffer. Beads during the last wash were aliquoted into 1.5 ml microcentrifuge tubes. After removal of IP buffer, the beads were washed once with 1× kinase buffer without ATP (5 mM Tris, pH 7.5, 5 mM-βglycerophosphate, 2 mM dithiothreitol, 0.1 mM Na3VO4, 10 mM MgCl2; Cell Signaling). After the wash, 40 μl 1× kinase buffer with 200 mM ATP was added to each tube, followed by 5 ul buffer without or with 500 ng recombinant MELK. The reaction was incubated at 30° C. for 30 min, and terminated by adding 40 ul 2×SDS sample buffer. The samples were then boiled and subjected to immunoblotting. […]

[3] = tested on: mitotic phosphorylation of Histone H3; assay: Immunoblotting of mitotic Histone H3 phosphorylation in drug-treated cells; format: cell-based, human
Method: Mitotic cells were harvested through nocodazole-induced cell cycle arrest at prometaphase (200 ng/ml nocodazole, 20 hours). Cells were treated with the small chemical inhibitor of MELK, OTSSP167, for 30 min, at the indicated concentrations. Cell lysates were then prepared for immunoblotting.
as §1
as §2, with “The membrane was then washed and scanned with an Odyssey® Infrared scanner (Li-Cor Biosciences).” left out

[4] = mitotic cells treated for 30 min, mTOR inhibitors versus MELK inhibitor (FIG. 6)

CC(=O)c1cnc2ccc(-c3cc(Cl)c(O)c(Cl)c3)nc2c1N[C@H]1CC[C@H](CN(C)C)CC1 [OTSSP167]
phosphorylation of eIF4B at S406 ([1]; mitotic MDA-MB-468 cells, 200 nM, 30 min, vs vehicle (FIG. 5 right panels)): impairs the phosphorylation of eIF4B at S406 | phosphorylation of eIF4B at S406 [1, 4]: suppressed the phosphorylation of eIF4B at S406 | MELK-induced phosphorylation of Histone H3 at Ser 10 in vitro [2]: suppresses MELK-induced phosphorylation of Histone H3 at Ser 10 | phosphorylation of Histone H3 at Thr3/Ser10/Thr11 ([3]; MDA-MB-468 cells (text cites FIG. 12)): reduced phosphorylation of Histone H3 at Thr3/Ser10/Thr11 | mitotic phosphorylation of Histone H3 at Thr-3, Ser-10 and Thr-11 ([3]; nocodazole-arrested mitotic cells, 30 min, indicated concentrations (FIG. 13)): concentration-dependent reduction; also recorded: suppresses the mitotic phosphorylation of Histone H3 at Thr-3, Ser-10 and Thr-11

CCC(=O)N1CCN(c2ccc(-n3c(=O)ccc4cnc5ccc(-c6cnc7ccccc7c6)cc5c43)cc2C(F)(F)F)CC1 [Torin 1]
phosphorylation of eIF4B at S406 [1, 4]: not mTOR inhibition | phosphorylation of eIF4B at S406 ([1]; mitotic cells treated for 30 min, mTOR inhibitors versus MELK inhibitor (FIG. 6), listed as torins): do not produce the same results
